Assay results reported in patent US4904673A, “Agent for treating bradycardia and bradyarrhythmia” (Dr. Karl Thomae, GmbH, priority 1988, dated 1990).

What was measured:
[1] = target: muscarinic receptors in cerebral cortex; experiment: Receptor binding test in vitro, 3H-NMS displacement, cerebral cortex homogenate; conditions: rat cerebral cortex homogenate 1:3000; 0.3 nanomolar 3H-NMS; 30° C., 45 minutes; read-out: Receptor Binding Tests IC50 Cortex
Procedure: The organs were donated by male Sprague-Dawley rats weighing 180-220 g. After the heart and subman-dibular gland and cerebral cortex had been removed, all other steps were carried out in ice cold Hepes HCl buffer (pH 7.4; 100 millimolar NaCl, 10 millimolar MgCl2). The whole heart was cut up with scissors. All the organs were then homogenised in a Potter apparatus.
(§1) For the binding test the homogenised organs were diluted as follows:
The homogenised organs were incubated at a certain concentration of the radioligand and at a series of concentrations of the non-radioactive test substances in an Eppendorf centrifuge tube at 30° C. Incubation lasted 45 minutes. The radioligand used was 0.3 nanomolar ^3 H-N-methylscopolamine (^3 H-NMS). Incubation was ended by the addition of ice cold buffer followed by vaccum filtration. The filters were rinsed with cold buffer and their radioactivity was determined. It represents the sum of specific and non-specific binding of ^3 H-NMS.
The proportion of non-specific binding was defined as the radioactivity which was bound in the presence of 1 micromolar quinuclidinyl-benzylate. Each measurement was taken four times. The IC^50 values of the non-labelled test substances were determined graphically. They represent that concentration of test substance at which the specific binding of ^3 H-NMS to the muscarinic receptors in the various organs was inhibited by 50%.

[2] = target: T1, muscarinic receptors in heart (Rattus norvegicus, UniProt P10980); experiment: Receptor binding test in vitro, 3H-NMS displacement, whole heart homogenate; conditions: rat whole heart homogenate 1:400; 0.3 nanomolar 3H-NMS; 30° C., 45 minutes; read-out: Receptor Binding Tests IC50 Heart
T1 construct: The whole heart was cut up with scissors; from tissue; host or cells: whole heart of male Sprague-Dawley rats, homogenate diluted 1:400
T1 sequence (P10980 1-466): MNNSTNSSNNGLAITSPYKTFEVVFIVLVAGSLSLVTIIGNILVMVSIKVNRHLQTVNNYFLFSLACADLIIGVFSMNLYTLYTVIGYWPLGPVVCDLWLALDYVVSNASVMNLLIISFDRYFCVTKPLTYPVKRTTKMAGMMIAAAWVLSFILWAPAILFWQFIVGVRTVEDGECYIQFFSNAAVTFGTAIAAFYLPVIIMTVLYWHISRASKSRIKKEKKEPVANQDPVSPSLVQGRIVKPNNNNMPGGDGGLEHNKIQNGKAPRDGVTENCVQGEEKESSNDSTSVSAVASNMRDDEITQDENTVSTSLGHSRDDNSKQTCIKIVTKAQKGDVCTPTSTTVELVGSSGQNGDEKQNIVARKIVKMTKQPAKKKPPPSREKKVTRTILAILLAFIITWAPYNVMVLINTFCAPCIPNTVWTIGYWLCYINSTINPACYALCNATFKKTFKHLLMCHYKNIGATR
Procedure: (§2) The organs were donated by male Sprague-Dawley rats weighing 180-220 g. […] The whole heart was cut up with scissors. All the organs were then homogenised in a Potter apparatus.
as §1
(§3) Incubation lasted 45 minutes. The radioligand used was 0.3 nanomolar ^3 H-N-methylscopolamine (^3 H-NMS). […] The filters were rinsed with cold buffer and their radioactivity was determined. It represents the sum of specific and non-specific binding of ^3 H-NMS.
(§4) Each measurement was taken four times. […] They represent that concentration of test substance at which the specific binding of ^3 H-NMS to the muscarinic receptors in the various organs was inhibited by 50%.

[3] = target: T2, muscarinic receptors in submandibular gland (Rattus norvegicus, UniProt P08483); experiment: Receptor binding test in vitro, 3H-NMS displacement, submandibular gland homogenate; conditions: rat submandibular gland homogenate 1:400; 0.3 nanomolar 3H-NMS; 30° C., 45 minutes; read-out: Receptor Binding Tests IC50 Submandibular gland
T2 construct: All the organs were then homogenised in a Potter apparatus; from tissue; host or cells: submandibular gland of male Sprague-Dawley rats, homogenate diluted 1:400
T2 sequence (P08483 whole entry): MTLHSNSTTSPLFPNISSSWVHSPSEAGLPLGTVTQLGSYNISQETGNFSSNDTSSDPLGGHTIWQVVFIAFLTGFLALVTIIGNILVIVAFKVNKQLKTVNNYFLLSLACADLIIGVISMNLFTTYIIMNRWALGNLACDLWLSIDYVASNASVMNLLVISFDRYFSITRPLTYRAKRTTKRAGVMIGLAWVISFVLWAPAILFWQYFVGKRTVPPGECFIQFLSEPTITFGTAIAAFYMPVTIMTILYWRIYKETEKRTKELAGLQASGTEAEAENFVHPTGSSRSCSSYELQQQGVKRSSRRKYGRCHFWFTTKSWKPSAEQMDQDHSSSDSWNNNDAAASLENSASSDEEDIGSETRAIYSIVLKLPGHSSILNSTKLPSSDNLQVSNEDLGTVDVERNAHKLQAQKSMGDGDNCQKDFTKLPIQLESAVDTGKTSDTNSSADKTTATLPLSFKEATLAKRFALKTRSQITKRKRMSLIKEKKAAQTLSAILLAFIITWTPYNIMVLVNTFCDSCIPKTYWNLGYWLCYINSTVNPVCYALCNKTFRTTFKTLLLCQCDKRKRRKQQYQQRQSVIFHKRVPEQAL
Procedure: as §2, §1
Submandibular gland 1:400
as §3, §4

[4] = test system: acetylcholine effect on heart rate; experiment: Inhibition of the effect of acetylcholine on heart rate in anaesthetised guinea pigs; type: in vivo, guinea pig; conditions: Cavia porcellus, iv, 5 min, 10 microgram/kg acetylcholine i.v. and intra-arterially 5 minutes after test substance, heart rate by ECG, read-out: -log ED50 Heart (converted)
Procedure: (§5) Substances with antimuscarinic properties inhibit the effects of agonists supplied exogenically or of acetylcholine, which is released from cholinergic nerve endings. The following is a description of an "in vivo" method which is suitable for the detection of cardioselective antimuscarinic agents.
(§6) Inhibition of the effect of acetylcholine on the bladder, bronchi and heart rate in guinea pigs
(§7) 5 minutes after the administration of the test substance, 10 microgram/kg of acetylcholine were simultaneously injected intravenously and intra-arterially into anaesthetised guinea pigs. The heart rate was recorded directly by extracorporeal derivation of the ECG, as were the expiration resistance according to Konzett-Rossler and the contraction of the exposed bladder. In order to determine the inhibition of the acetylcholine activity on the organs under investigation, dosage/activity curves were recorded and from them -log ED50 values were determined. For the results see Table II.

[5] = test system: acetylcholine effect on bronchi; experiment: Inhibition of the effect of acetylcholine on bronchi (expiration resistance, Konzett-Rossler) in anaesthetised guinea pigs; type: in vivo, guinea pig; conditions: Cavia porcellus, iv, 5 min, 10 microgram/kg acetylcholine i.v. and intra-arterially 5 minutes after test substance, read-out: -log ED50 Bronchi (converted)
Procedure: as §5, §6, §7

[6] = test system: acetylcholine effect on bladder; experiment: Inhibition of the effect of acetylcholine on contraction of the exposed bladder in anaesthetised guinea pigs; type: in vivo, guinea pig; conditions: Cavia porcellus, iv, 5 min, 10 microgram/kg acetylcholine i.v. and intra-arterially 5 minutes after test substance, read-out: -log ED50 Bladder (converted)
Procedure: as §5, §6, §7

| SMILES | IC50 [1] [nM] | IC50 [2] [nM] | IC50 [3] [nM] | ED50 [4] [µmol/kg] | ED50 [5] [µmol/kg] | ED50 [6] [µmol/kg] |
| --- | --- | --- | --- | --- | --- | --- |
| CCN(CCCC(=O)N1CCC(C(=O)N(C)C)CC1)C(C)Cc1ccc(OC)cc1 (racemic) [A, (±)-1-[4-[ethyl[2-(4-methoxyphenyl)-1-methylethyl]amino]-1-oxobutyl]-N,N-dimethyl-4-piperidine carboxamide] | 50 | 10 | 300 | 0.0646 | 0.148 | 0.513 |
| CN1[C@@H]2CC[C@H]1C[C@@H](OC(=O)C(CO)c1ccccc1)C2 (stereo partly shown) [B, atropine, reference compound] | 2 |  |  |  |  |  |
